Data published in PMC12679848, “Sulphonamide derivatives with a triazine core as novel inducers of apoptosis and pyroptosis in glioblastoma multiforme cells” (Journal of Enzyme Inhibition and Medicinal Chemistry, 2025).

Tests used:
[1] = system: U-87 MG; experiment: Mitochondrial membrane potential (JC-1), U-87 MG; format: cell-based, human; settings: 1.5 μM, 24 h
Procedure: The impact of the novel compounds on mitochondrial membrane potential (ΔΨm) was examined. […] In this study, the fluorochrome JC-1 was employed, which, in cells with normally functioning mitochondria, aggregates and accumulates in the hyperpolarized mitochondrial membrane, emitting a red colour. Conversely, when the membrane is damaged, JC-1 breaks down into monomers, emitting green fluorescence. […] For the U-87 MG cell line, these parameters were equal to 54.88 ± 8.36% and 56.13 ± 13.97% of the cell population.
JC-1 (1,1′,3,3′-Tetraethyl-5,5′,6,6′-tetrachloroimidacarbocyanine iodide) (BD Biosciences, San Diego, CA, USA), a lipophilic fluorochrome, was used to evaluate changes in mitochondrial membrane potential. After treatment, cancer cells at a concentration of 1 × 10^6 cells/mL were collected and rinsed twice with PBS. Then, 500 μL JC-1 working solution was added to each sample according to the manufacturer’s protocol. The samples were then incubated for 15 min at 37 °C in a CO2 incubator. After incubation, samples were washed twice with an assay buffer, and 500 μL of each sample was transferred to a BD FACSCanto II flow cytometer (Becton Dickinson Biosciences, San Jose, CA, USA) for analysis, with 10,000 events recorded per sample. Data were analysed using FACSDiva software version 6.1.3 (BD Biosciences Systems, San Jose, CA, USA).

[2] = system: caspase 8; experiment: Caspase 8 activation (FAM FLICA), A172; format: cell-based, human; settings: A172, 1.5 μM, 24 h
Procedure: (§1) The activity of caspase 1, caspase 3/7, caspase 8, and caspase 9 was evaluated through the utilisation of FAM FLICA Caspase Assays (ImmunoChemistry Technologies, Bloomington, MN, USA), in accordance with the established protocols. Following treatment with the compounds, the cells were collected at a concentration of 1 × 10^6 cells/mL, washed twice with cold PBS, and resuspended in 290 μL of PBS. The subsequent step involved the addition of 10 μL of 30X FLICA solution, followed by incubation at 37 °C in the absence of light for one hour. Then, 2 ml of Apoptosis Wash Buffer was added, and the samples were washed twice. A 300 μL aliquot of each sample was transferred to a BD FACSCanto II flow cytometer (Becton Dickinson Biosciences, San Jose, CA, USA), where 10,000 events per sample were recorded. The resulting data was then analysed using FACSDiva software, version 6.1.3 (BD Biosciences Systems, San Jose, CA, USA).

[3] = system: caspase 3/7; experiment: Caspase 3/7 activation (FAM FLICA), A172; format: cell-based, human; settings: A172, 1.5 μM, 24 h
Procedure: as §1

[4] = system: U-118 MG; experiment: MTT assay, U-118 MG; format: cell-based; settings: Homo sapiens, 24 h of incubation, read-out: IC50 values ± SEM, MTT assay
Procedure: (§2) Human glioblastoma cell lines (A172 CRL-1620™, U-87 MG HTB-14™, U-118 MG HTB-15™, T98G CRL-1690™) and the mouse astrocyte cell line (C8-D1A CRL-2541™) were obtained from the American Type Culture Collection (ATCC, Manassas, VA, USA). The cell lines were cultured in complete medium: DMEM (Corning, Kennebunk, ME, USA) for C8-D1A and T98G, and EMEM (ATCC, Manassas, VA, USA) for A172, U-87 MG, U118MG. The media were supplemented with 10% foetal bovine serum (Eurx, Gdansk, Poland) and 1% penicillin-streptomycin solution (Corning, Kennebunk, ME, USA). Cells were cultured in cell culture flasks (Sarstedt, Numbrecht, Germany) at 37 °C in 5% CO2. For experiments, cells were washed with phosphate-buffered saline without calcium and magnesium (Corning, Kennebunk, ME, USA) and treated with 0.05% trypsin and 0.02% EDTA (Corning, Kennebunk, ME, USA). Cells were counted using a Sceptre 3.0 cell counter (Merck Millipore, Burlington, MA, USA) prior to seeding into plates. For 6-well plates, 5 x 10^5 cells/mL were seeded, while for 96-well plates (Sarstedt, Numbrecht, Germany), 1 x 10^5 cells/mL were seeded in 100 μL of the medium.
(§3) The cell lines were seeded in 96-well plates and cultured according to the methodology described in the previous section. Cells were then treated with the novel derivatives MM118 and MM119 and the reference compound temozolomide (TMZ) (Sigma-Aldrich, St. Louis, MO, USA) at concentrations of 0.1, 0.25, 0.5, 1.0, 2.5, 5.0, and 10.0 μM for 24 h. The MTT assay was performed using a solution of 3–(4,5-dimethyl-2-thiazolyl)-2,5-diphenyl-2H-tetrazolium bromide (Sigma-Aldrich, St. Louis, MO, USA) at a concentration of 5 mg/mL in phosphate-buffered saline without calcium and magnesium (Corning, Kennebunk, ME, USA). After 24 h incubation with test compounds, 10 μL MTT solution was added to each well, and cells were incubated for another 2 h at 37 °C. The cells were then lysed in 100 μL lysis buffer (25 mM HCl, 2% acetic acid, 3% DMF, and 5% SDS, adjusted to pH 4.7). Absorbance was measured at 570 nm using an Absorbance 96 microplate reader (Byonoy GmbH, Hamburg, Germany).

[5] = system: T98G; experiment: MTT assay, T98G; format: cell-based; settings: Homo sapiens, 24 h of incubation, read-out: IC50 values ± SEM, MTT assay
Procedure: as §2, §3

[6] = system: caspase 3/7; experiment: Caspase 3/7 activation (FAM FLICA), U-87 MG; format: cell-based, human; settings: 1.5 μM, 24 h
Procedure: as §1

Structure (SMILES)	Decreased ΔΨm (cell population) [1]	Active caspase 8 (cell population) [2]	Active caspase 3/7 (cell population) [3]	IC50 [4]	IC50 [5]	Active caspase 3/7 (cell population) [6]
CCC(CO)NS(=O)(=O)c1ccc(-n2nc(C)c3nc4nnnn4nc32)cc1 (stereo in doubt) [MM118, N-(R)-(1-hydroxy-but-2-yl)-4-[7-methyl-5H-pyrazolo[4,3-e]tetrazolo[1,5-b][1]^,[2]^,[4]triazin-5-yl)]benzenesulfonamide]	54.88 ± 8.36%	42.85 ± 5.36%	42.40 ± 12.59%	471 ± 191 nM	2440 ± 393 nM	60.08 ± 2.50%
CCC(CO)NS(=O)(=O)c1ccc(-n2nc(C)c3nc4nnnn4nc32)cc1 (stereo in doubt) [MM119, N-(S)-(1-hydroxy-but-2-yl)-4-[7-methyl-5H-pyrazolo[4,3-e]tetrazolo[1,5-b][1]^,[2]^,[4]triazin-5-yl)]benzenesulfonamide]	56.13 ± 13.97%	34.35 ± 7.58%	25.60 ± 4.29%	670 ± 173 nM	4410 ± 1190 nM	57.48 ± 19.68%
Cn1nnc2c(C(N)=O)ncn2c1=O [TMZ, temozolomide, reference compound]	7.05 ± 2.85%	No significant statistical differences	no significant differences	> 10000 nM	> 10000 nM	no significant differences
